Measured values taken from DBAASP.
Converted amounts (≈) assume the structure as drawn. Blank lines part the entries; values can stand above or below the compound they belong to.

Legend:
Experiment in all cases: ≥ marks a high value that may be exact or a test limit, other limits are often not marked, values filed in µg/mL are converted to µM
[1] = system: Escherichia coli PCM 2057
[2] = system: Staphylococcus aureus PCM 1944
[3] = system: Bacteroides fragilis ATCC 25285
[4] = system: Bacteroides fragilis
[5] = system: Candida albicans ATCC 90028
[6] = system: Clostridium perfringens ATCC 10543
[7] = system: Clostridium septicum
[8] = system: Clostridium tertium ATCC 19465
[9] = system: Cutibacterium acnes ATCC 11828
[10] = system: Cutibacterium acnes
[11] = system: Enterobacter cloacae HNTCC 53001
[12] = system: Enterococcus faecalis ATCC 29212
[13] = system: Escherichia coli ATCC 25922
[14] = system: Fusobacterium nucleatum
[15] = system: Fusobacterium varium ATCC 27725
[16] = system: Klebsiella pneumoniae KK3 9904
[17] = system: Peptoniphilus asaccharolyticus ATCC 29743
[18] = system: Peptostreptococcus anaerobius
[19] = system: Prevotella melaninogenica
[20] = system: Proteus mirabilis ATCC 25933
[21] = system: Pseudomonas aeruginosa ATCC 27853
[22] = system: Salmonella enterica subsp. enterica serovar Typhimurium LT2
[23] = system: Staphylococcus aureus NCTC 8325
[24] = system: Staphylococcus aureus T27/9
[25] = system: Staphylococcus aureus T7/20
[26] = system: Staphylococcus aureus T7/5
[27] = system: Staphylococcus epidermidis RP62A
[28] = system: Bacillus subtilis KCTC 3068
[29] = system: Escherichia coli KCTC 1682
[30] = system: Pseudomonas aeruginosa CCARM 2095
[31] = system: Pseudomonas aeruginosa CCARM 2109
[32] = system: Pseudomonas aeruginosa KCTC 1637
[33] = system: Salmonella typhimurium KCTC 1926
[34] = system: Staphylococcus aureus CCARM 3001
[35] = system: Staphylococcus aureus CCARM 3543
[36] = system: Staphylococcus aureus KCTC 1621
[37] = system: Staphylococcus epidermidis KCTC 1917
[38] = system: Agrobacterium tumefaciens LBA 4404
[39] = system: Aspergillus niger IFO 4416
[40] = system: Bacillus cereus IFO 3514
[41] = system: Bacillus subtilis IFO 3336
[42] = system: Candida albicans IFO 1385
[43] = system: Candida boidinii MIP 104
[44] = system: Enterococcus faecalis JCM 8726
[45] = system: Escherichia coli IFO 3301
[46] = system: Geobacillus stearothermophilus IFO12550
[47] = system: Kitasatospora kifunensis MN1
[48] = system: Levilactobacillus brevis IFO 3345
[49] = system: Pseudomonas aeruginosa IFO 3445
[50] = system: Saccharomyces cerevisiae KK4
[51] = system: Salmonella typhimurium IFO 12529
[52] = system: Staphylococcus aureus ATCC 33591
[53] = system: Staphylococcus aureus IFO 13276
[54] = system: Bacillus subtilis ATCC 6633
[55] = system: Pseudomonas fluorescens ATCC 13525
[56] = system: Staphylococcus aureus ATCC 2592

SMILES: CC[C@H](C)[C@@H]1NC(=O)[C@H](CO)NC(=O)[C@H](CCCCN)NC(=O)[C@@H](N)CSSC[C@@H](C(=O)O)NC(=O)[C@H](Cc2ccccc2)NC1=O [CKSIFC]
MIC [1]: ≥ 1430 µM
MIC [2]: ≥ 1430 µM

SMILES: CC[C@H](C)[C@H](NC(=O)[C@H](CO)NC(=O)[C@H](CO)NC(=O)[C@H](CC(C)C)NC(=O)[C@@H](N)Cc1ccccc1)C(=O)NCC(=O)N[C@@H](CCCCN)C(=O)N[C@H](C(=O)N[C@@H](CC(C)C)C(=O)NCC(=O)N[C@@H](CC(N)=O)C(=O)N[C@@H](CC(C)C)C(=O)N[C@@H](CC(C)C)C(N)=O)[C@@H](C)CC [FLSSIGKILGNLL]
MIC [3]: ≥ 50 µM
MIC [4]: ≥ 50 µM
MIC [5]: ≥ 160 µM
MIC [6]: 25 µM (≈ 34.3 µg/mL)
MIC [7]: ≥ 50 µM
MIC [8]: 12.5 µM (≈ 17.2 µg/mL)
MIC [9]: 6 µM (≈ 8.24 µg/mL)
MIC [10]: 12.5 µM (≈ 17.2 µg/mL)
MIC [11]: ≥ 40 µM
MIC [12]: 40 µM (≈ 54.9 µg/mL)
MIC [13]: 40 µM (≈ 54.9 µg/mL)
MIC [14]: ≥ 50 µM
MIC [15]: ≥ 50 µM
MIC [16]: ≥ 80 µM
MIC [17]: ≥ 50 µM
MIC [18]: 25 µM (≈ 34.3 µg/mL)
MIC [19]: 25 µM (≈ 34.3 µg/mL)
MIC [20]: ≥ 100 µM
MIC [21]: 160 µM (≈ 220 µg/mL)
MIC [22]: ≥ 50 µM
MIC [23]: 10 µM (≈ 13.7 µg/mL)
MIC [24]: ≥ 40 µM
MIC [25]: 20 µM (≈ 27.5 µg/mL)
MIC [26]: 20 µM (≈ 27.5 µg/mL)
MIC [27]: 20 µM (≈ 27.5 µg/mL)

SMILES: CC[C@H](C)[C@H](NC(=O)[C@H](CCCCN)NC(=O)[C@H](CC(C)C)NC(=O)[C@H](Cc1ccccc1)NC(=O)[C@H](CO)NC(=O)[C@H](CC(C)C)NC(=O)[C@H](Cc1ccccc1)NC(=O)[C@H](CCCN=C(N)N)NC(=O)[C@H](CO)NC(=O)[C@H](CC(C)C)NC(=O)[C@@H](N)CO)C(=O)N[C@H](C(=O)N[C@@H](Cc1ccc(O)cc1)C(=O)N1CCC[C@H]1C(=O)N1CCC[C@H]1C(=O)N[C@@H](C)C(=O)N[C@@H](Cc1ccccc1)C(N)=O)C(C)C [SLSRFLSFLKIVYPPAF]
MIC [54]: 25.2 µM (≈ 50 µg/mL)
MIC [55]: ≥ 50.4 µM
MIC [56]: 25.2 µM (≈ 50 µg/mL)

The remaining lines, values ahead:

MIC [28]: 4 µM (≈ 6.16 µg/mL)
MIC [29]: 4 µM (≈ 6.16 µg/mL)
MIC [30]: 16 µM (≈ 24.7 µg/mL)
MIC [31]: 16 µM (≈ 24.7 µg/mL)
MIC [32]: 4 µM (≈ 6.16 µg/mL)
MIC [33]: 2 µM (≈ 3.08 µg/mL)
MIC [34]: 8 µM (≈ 12.3 µg/mL)
MIC [35]: 4 µM (≈ 6.16 µg/mL)
MIC [36]: 2 µM (≈ 3.08 µg/mL)
MIC [37]: 4 µM (≈ 6.16 µg/mL)
SMILES: CC(C)C[C@H](NC(=O)[C@H](Cc1c[nH]c2ccccc12)NC(=O)[C@H](CCCCN)NC(=O)[C@H](CC(C)C)NC(=O)[C@H](Cc1c[nH]c2ccccc12)NC(=O)[C@H](CC(C)C)NC(=O)[C@H](CCCCN)NC(=O)[C@H](Cc1c[nH]c2ccccc12)NC(=O)[C@H](CC(C)C)NC(=O)[C@@H](N)CCCCN)C(=O)N[C@@H](CCCCN)C(N)=O [KLWKLWLKWLK]

MIC [38]: 6.74 µM (≈ 10 µg/mL)
MIC [39]: ≥ 33.7 µM
MIC [40]: ≥ 269 µM
MIC [41]: 6.74 µM (≈ 10 µg/mL)
MIC [42]: ≥ 67.4 µM
MIC [43]: 6.74 µM (≈ 10 µg/mL)
MIC [44]: 6.74 µM (≈ 10 µg/mL)
MIC [45]: 6.74 µM (≈ 10 µg/mL)
MIC [46]: 6.74 µM (≈ 10 µg/mL)
MIC [47]: ≥ 269 µM
MIC [48]: 6.74 µM (≈ 10 µg/mL)
MIC [49]: 6.74 µM (≈ 10 µg/mL)
MIC [50]: ≥ 67.4 µM
MIC [51]: ≥ 101 µM
MIC [52]: ≥ 33.7 µM
MIC [53]: ≥ 33.7 µM
SMILES: NC(N)=NCCC[C@H](NC(=O)[C@H](Cc1cnc[nH]1)NC(=O)[C@H](CCCN=C(N)N)NC(=O)[C@H](Cc1cnc[nH]1)NC(=O)[C@H](CCCN=C(N)N)NC(=O)[C@H](Cc1cnc[nH]1)NC(=O)[C@H](CCCN=C(N)N)NC(=O)[C@H](Cc1cnc[nH]1)NC(=O)[C@@H](N)CCCN=C(N)N)C(=O)N[C@@H](Cc1cnc[nH]1)C(=O)O [RHRHRHRHRH]
